Laboratory results: patent US9718820B2, “Substituted aza-bicyclic imidazole derivatives useful TRPM8 receptor modulators” (Janssen Pharmaceutica NV, priority 2010, dated 2017)

Columns and labels:
canine TRPM8 = canine TRPM8 (Canis lupus familiaris, UniProt Q1A7N1); assay: In vitro canine TRPM8 functional assay (icilin-induced intracellular Ca2+ increase, FLIPR/FDSS); format: cell-based; conditions: 0.2 μM compound; icilin response in HEK293 cells stably expressing canine TRPM8
Procedure: The functional activity of representative compounds of the formula (I) of the present invention was quantified by measuring changes in intracellular calcium concentration using a Ca^2+-sensitive fluorescent dye. The changes in fluorescent signal were monitored by a fluorescence plate reader, either a FLIPR™ (Molecular Devices) or FDSS (Hamamatsu).
HEK293 cells stably expressing canine TRPM8 were routinely grown as monolayers in Dulbecco's minimum essential medium supplemented with 10% FBS, 2 mM L-glutamine, 100 units/mL penicillin, 100 ug/mL streptomycin and 400 μg/mL G418. Cells were maintained in 5% CO2 at 37° C. […] Cells were treated with compounds of the formula (I) at varying concentrations and intracellular Ca^2+ was measured for 5 min prior to the addition of icilin to each well to achieve a final concentration that produces an approximately 80% maximal response.
Maximal fluorescence intensity (FI) achieved upon addition of icilin was exported from the FLIPR™ or FDSS software and further analyzed using GraphPad Prism 3.02 (Graph Pad Software Inc., CA, U.S.A.). […] Finally, the EC50 and IC50 values were calculated with the best-fit curve determined by GraphPad Prism

TRPM8 channel = TRPM8 channel (Rattus norvegicus (Rat), UniProt Q8R455); assay: Inhibition of icilin-induced "wet-dog" shakes in rats; format: in vivo; conditions: 10 mg/kg p.o. in 10% HP-β-CD, icilin 3.0 mg/kg i.p.
Chain of TRPM8 channel (Q8R455 whole entry): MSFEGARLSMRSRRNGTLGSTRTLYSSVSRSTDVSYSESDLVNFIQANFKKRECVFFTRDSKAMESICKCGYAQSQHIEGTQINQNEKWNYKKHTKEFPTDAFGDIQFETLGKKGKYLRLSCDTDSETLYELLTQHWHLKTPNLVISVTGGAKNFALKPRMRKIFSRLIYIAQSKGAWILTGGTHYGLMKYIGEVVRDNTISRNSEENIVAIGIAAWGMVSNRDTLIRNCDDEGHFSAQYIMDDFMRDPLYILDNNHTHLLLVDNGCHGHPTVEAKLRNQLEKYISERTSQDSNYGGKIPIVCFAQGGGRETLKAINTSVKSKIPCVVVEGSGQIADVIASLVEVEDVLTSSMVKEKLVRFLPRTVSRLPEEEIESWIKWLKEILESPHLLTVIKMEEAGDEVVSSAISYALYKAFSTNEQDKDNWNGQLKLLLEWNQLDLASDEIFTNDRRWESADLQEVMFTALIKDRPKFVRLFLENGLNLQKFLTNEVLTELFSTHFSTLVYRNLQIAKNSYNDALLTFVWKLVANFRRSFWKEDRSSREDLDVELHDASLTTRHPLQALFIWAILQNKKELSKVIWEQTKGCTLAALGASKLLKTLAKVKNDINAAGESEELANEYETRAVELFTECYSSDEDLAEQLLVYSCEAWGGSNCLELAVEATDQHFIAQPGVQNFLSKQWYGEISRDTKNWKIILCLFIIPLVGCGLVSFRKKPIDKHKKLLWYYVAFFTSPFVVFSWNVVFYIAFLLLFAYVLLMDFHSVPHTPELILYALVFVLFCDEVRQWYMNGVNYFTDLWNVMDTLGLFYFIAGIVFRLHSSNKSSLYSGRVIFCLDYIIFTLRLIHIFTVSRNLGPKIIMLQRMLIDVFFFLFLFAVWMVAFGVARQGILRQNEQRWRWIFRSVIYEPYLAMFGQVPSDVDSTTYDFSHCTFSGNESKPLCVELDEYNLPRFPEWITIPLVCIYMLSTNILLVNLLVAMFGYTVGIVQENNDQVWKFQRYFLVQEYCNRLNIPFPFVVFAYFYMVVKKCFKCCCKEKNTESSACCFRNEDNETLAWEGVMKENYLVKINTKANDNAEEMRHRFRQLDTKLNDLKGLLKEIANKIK
Procedure: Similar shaking or jumping behavior was also evident in mice, rabbits, cats, dogs and monkeys. In humans, icilin produced a sensation of coolness on contact with mucous membranes, cold prickling when 0.1 mg was dropped on the tongue and coldness in the mouth, pharynx and chest lasting 30-60 min when 5-10 mg was ingested orally (WEI, E. T., et al., “AG-3-5: a chemical producing sensations of cold”, J Pharm Pharmacol., 1983, pp 110-112, Vol. 35). The inhibition or reversal of icilin-induced shaking behaviors in rodents provides evidence for the engagement and functional blockade of the TRPM8 channel and thereby for the utility of TRPM8 antagonists in treating or preventing a disease or condition in a mammal in which the disease or condition is affected by the modulation of TRPM8 receptors.
Male Sprague Dawley rats (220-450 g, Charles River Labs, n=6-9/treatment) were used to evaluate the ability of test compounds to block icilin-induced “wet-dog” shakes (WDS). […] Icilin was then administered in 10% solutol/H2O, at 3.0 mg/kg, i.p., and spontaneous “wet-dog” shakes were counted 10 min following the icilin injection over a 10-min period.

Chain of canine TRPM8 (Q1A7N1 1-1104): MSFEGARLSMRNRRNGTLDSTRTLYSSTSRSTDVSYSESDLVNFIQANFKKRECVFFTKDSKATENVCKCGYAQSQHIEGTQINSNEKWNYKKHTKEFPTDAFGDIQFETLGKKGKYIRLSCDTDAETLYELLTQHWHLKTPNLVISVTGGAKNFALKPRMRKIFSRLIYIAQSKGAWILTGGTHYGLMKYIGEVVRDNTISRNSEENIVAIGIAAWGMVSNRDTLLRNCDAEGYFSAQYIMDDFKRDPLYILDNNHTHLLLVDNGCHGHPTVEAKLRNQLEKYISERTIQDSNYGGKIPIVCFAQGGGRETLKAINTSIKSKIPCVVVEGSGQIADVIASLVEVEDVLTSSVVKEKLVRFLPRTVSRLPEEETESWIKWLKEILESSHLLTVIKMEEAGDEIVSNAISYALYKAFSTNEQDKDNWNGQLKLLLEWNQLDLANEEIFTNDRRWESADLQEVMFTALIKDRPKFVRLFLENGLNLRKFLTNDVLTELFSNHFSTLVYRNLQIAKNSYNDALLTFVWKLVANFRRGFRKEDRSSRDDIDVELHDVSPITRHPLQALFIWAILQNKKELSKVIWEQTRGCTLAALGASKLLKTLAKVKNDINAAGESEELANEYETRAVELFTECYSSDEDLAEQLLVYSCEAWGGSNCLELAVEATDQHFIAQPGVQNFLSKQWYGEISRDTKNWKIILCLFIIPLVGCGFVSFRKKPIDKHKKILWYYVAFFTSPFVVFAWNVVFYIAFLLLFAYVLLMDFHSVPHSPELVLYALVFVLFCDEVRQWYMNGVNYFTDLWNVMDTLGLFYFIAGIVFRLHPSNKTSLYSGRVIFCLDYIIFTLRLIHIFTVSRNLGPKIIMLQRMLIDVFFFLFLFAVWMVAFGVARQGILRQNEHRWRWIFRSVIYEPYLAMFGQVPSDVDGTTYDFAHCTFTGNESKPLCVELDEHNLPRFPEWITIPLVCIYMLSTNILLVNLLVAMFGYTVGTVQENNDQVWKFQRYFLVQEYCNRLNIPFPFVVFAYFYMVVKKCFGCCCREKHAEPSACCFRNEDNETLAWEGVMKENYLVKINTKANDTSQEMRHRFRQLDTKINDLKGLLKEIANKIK

Row | Icilin % Inhibition @ 1.5 h, 10 mg/kg (TRPM8 channel) | SMILES | % Inh @ 0.2 μM (canine TRPM8)
1 | – | Cn1nc(C(C)(C)C)c(Cl)c1-c1nc2nc(-c3ccccc3Cl)cnc2[nH]1 [Compound 110] | 99%
2 | 38% | COc1nc(-c2ccccc2Cl)cc2nc(-c3c(C#N)c(C(C)(C)C)nn3C)[nH]c12.CS(=O)(=O)O [Compound 17, 3-tert-Butyl-5-[6-(2-chloro-phenyl)-4-methoxy-3H-imidazo[4,5-c]pyridine-2-yl]-1-methyl-1H-pyrazole-4-carbonitrile methanesulfonic acid salt] | –
3 | – | Cn1nc(C(C)(C)C)c(Cl)c1-c1nc2nc(-c3ccccc3C(F)(F)F)cc(C(F)(F)F)c2[nH]1 [Compound 1] | 99%
